# Results: patent publication US20190337932A1, “PROCESS FOR PREPARATION OF DACLATASVIR AND SALTS” (Gienmark Pharmaceuticals Limited, priority 2016, published 2019)
# Structures can show the parent of a compound that is named as a salt.
# Columns and labels:
# Assay type in all cases: physicochemical
# [1] = Dynamic vapor system sorption/desorption isotherms; conditions: 25° C., relative humidity of 40% to 90%
# Description: Sorption/desorption isotherms were measured using the Dynamic vapor System. Measurement was carried out at 25° C. and Relative humidity of 40% to 90%.
# [2] = Solid state stability at accelerated stress conditions (40° C./75% relative humidity); conditions: 40° C./75% RH
# Description: In one embodiment the present invention provides daclatasvir dihydrochloride hydrate, which has enhanced stability to heat and humidity. According to the present invention, the obtained daclatasvir dihydrochloride hydrate is subjected to accelerated stability at 40° C. and relative humidity (RH) 75%.
# The solid state stability of the daclatasvir dihydrochloride hydrate was determined by storing approximately 3.0 g of the sample at accelerated stress conditions (40° C./75% relative humidity) for 15 days, 1 month, 3 months, 6 months. The samples were tested by XRPD and HPLC for final purity and degradation products.
# [3] = Physical stability on storing/drying at 50° C., 70° C., 100° C. (XRPD, Karl-Fisher)
# Description: The physical stability of the daclatasvir dihydrochloride hydrate, of the present invention was determined by storing approximately 3.0 g of the sample a) at 50° C. b) at 70° C. c) at 100° C. The samples were tested by XRPD and Karl-Fisher titrator after 15 hours and 72 hours.
# [4] = Hygroscopicity at 25° C/60% and 40° C/75% relative humidity (description, water content by Karl Fischer); conditions: for hygroscopicity: conclusion of the study, Tables 4 and 5
# Description: The study was carried out by subjecting 4 g of daclatasvir dihydrochloride hydrate of the present invention and literature Form N-2 of daclatasvir dihydrochloride to 25′C/60% relative humidity and 40′C/75% relative humidity. About 100 mg of sample was withdrawn each time at timely interval of 4, 12, 24 and 48 hours from the conditions is and tested for description and water content by Karl Fischer.
# [5] = Photostability, light of 4000 lux at 25° C. for 2 weeks
# Description: This study was carried out in a photostability testing chamber by subjecting daclatasvir dihydrochloride hydrate of the present invention to irradiation with light of 4000 lux at 25° C. for 2 weeks and the samples were tested for XRPD and stability.
# [6] = Transformation kinetics: slurrying in water at 25 to 30° C. for 24 hours, XRPD
# Description: The study was carried out by slurrying 1 g of daclatasvir dihydrochloride hydrate of the present invention and literature Form N-2 of daclatasvir dihydrochloride, in water at 25 to 30° C. for 24 hours. The solid samples were then characterized by XRPD.
# [7] = listed as literature form N-2, dihydrochloride
smiles,measurement,setting,value
COC(=O)N[C@H](C(=O)N1CCC[C@H]1c1ncc(-c2ccc(-c3ccc(-c4cnc([C@@H]5CCCN5C(=O)[C@@H](NC(=O)OC)C(C)C)[nH]4)cc3)cc2)[nH]1)C(C)C [daclatasvir dihydrochloride hydrate],Adsorption desorption profile,[1],reversible
same,HPLC Purity (%),[2]; after 1 month,99.9%
same,XRPD,[2]; after 1 month,Same as initial
same,HPLC Purity (%),[2]; after 3 months,99.89%
same,XRPD,[2]; after 3 months,Same as initial
same,HPLC Purity (%),[2]; after 6 months,99.88%
same,XRPD,[2]; after 6 months,Same as initial
same,HPLC Purity (%),[2]; after 15 days,99.9%
same,XRPD,[2]; after 15 days,Same as initial
same,chemical and physical stability,[2]; accelerated stability,chemically and physically very stable
same,degradation in HPLC,[2]; accelerated stability,no degradation
same,increase in the moisture content,[2]; accelerated stability,no substantial increase
same,XRPD pattern,"[2]; accelerated stability, dihydrochloride hydrate",remains the same as initial
same,KF,[3]; Drying at 50° C. for 15 hours,8.03%
same,KF,[3]; Drying at 50° C. for 72 hours,8.12%
same,Key XRPD peaks after drying,"[3]; Drying at 50° C., 70° C. (15 and 72 hours) and 100° C. (15 hours), one merged cell",There was no change in XRPD
same,KF,[3]; Drying at 70° C. for 15 hours,8.03%
same,KF,[3]; Drying at 70° C. for 72 hours,8.02%
same,KF,[3]; Drying at 100° C. for 15 hours,8%
same,KF,[3]; Initial form,7.99%
same,change in form,[3]; drying and humid conditions,no change in form
same,Description,"[4]; 25° C./60% relative humidity, 4 hours",Creamish
same,Moisture content by KF,"[4]; 25° C./60% relative humidity, 4 hours, dihydrochloride hydrate",8.77%
same,Description,"[4]; 25° C./60% relative humidity, 12 hours",Creamish
same,Moisture content by KF,"[4]; 25° C./60% relative humidity, 12 hours, dihydrochloride hydrate",8.86%
same,Description,"[4]; 25° C./60% relative humidity, 24 hours",Creamish
same,Moisture content by KF,"[4]; 25° C./60% relative humidity, 24 hours, dihydrochloride hydrate",8.89%
same,Description,"[4]; 25° C./60% relative humidity, 48 hours",Creamish
same,Moisture content by KF,"[4]; 25° C./60% relative humidity, 48 hours, dihydrochloride hydrate",8.91%
same,Description,"[4]; 25° C./60% relative humidity, Initial",Creamish
same,Moisture content by KF,"[4]; 25° C./60% relative humidity, Initial, dihydrochloride hydrate",8.76%
same,Description,"[4]; 40° C./75% relative humidity, 4 hours",Creamish
same,Moisture content by KF,"[4]; 40° C./75% relative humidity, 4 hours, dihydrochloride hydrate",8.76%
same,Description,"[4]; 40° C./75% relative humidity, 12 hours",Creamish
same,Moisture content by KF,"[4]; 40° C./75% relative humidity, 12 hours, dihydrochloride hydrate",8.81%
same,Description,"[4]; 40° C./75% relative humidity, 24 hours",Creamish
same,Moisture content by KF,"[4]; 40° C./75% relative humidity, 24 hours, dihydrochloride hydrate",8.86%
same,Description,"[4]; 40° C./75% relative humidity, 48 hours",Creamish
same,Moisture content by KF,"[4]; 40° C./75% relative humidity, 48 hours, dihydrochloride hydrate",8.92%
same,Description,"[4]; 40° C./75% relative humidity, Initial",Creamish
same,Moisture content by KF,"[4]; 40° C./75% relative humidity, Initial, dihydrochloride hydrate",8.76%
same,hygroscopicity,[4]; dihydrochloride hydrate,non-hygroscopic
same,XRPD pattern,[5],remains same as initial
same,degradation in HPLC,[5],no degradation
same,Result (form by XRPD),[6]; dihydrochloride hydrate,No discernible form conversion or dissociation
"COC(=O)N[C@H](C(=O)N1CCC[C@H]1c1ncc(-c2ccc(-c3ccc(-c4cnc([C@@H]5CCCN5C(=O)[C@@H](NC(=O)OC)C(C)C)[nH]4)cc3)cc2)[nH]1)C(C)C [daclatasvir dihydrochloride, reference compound]",Moisture content by KF,"[4]; 25° C./60% relative humidity, 4 hours, dihydrochloride",2.45%
same,Moisture content by KF,"[4]; 25° C./60% relative humidity, 12 hours, dihydrochloride",2.47%
same,Moisture content by KF,"[4]; 25° C./60% relative humidity, 24 hours, dihydrochloride",2.44%
same,Moisture content by KF,"[4]; 25° C./60% relative humidity, 48 hours, dihydrochloride",2.47%
same,Moisture content by KF,"[4]; 25° C./60% relative humidity, Initial, dihydrochloride",2.12%
same,Moisture content by KF,"[4]; 40° C./75% relative humidity, 4 hours, dihydrochloride",2.52%
same,Moisture content by KF,"[4]; 40° C./75% relative humidity, 12 hours, dihydrochloride",2.54%
same,Moisture content by KF,"[4]; 40° C./75% relative humidity, 24 hours, dihydrochloride",2.65%
same,Moisture content by KF,"[4]; 40° C./75% relative humidity, 48 hours, dihydrochloride",2.77%
same,Moisture content by KF,"[4]; 40° C./75% relative humidity, Initial, dihydrochloride",2.12%
same,hygroscopicity,[4]; [7],more hygroscopic than the form of the present invention
same,Result (form by XRPD),"[6]; listed as Form-N2, dihydrochloride",Converted to crystalline daclatasvir
same,Result (form by XRPD),[6]; [7],did not retain its form and was converted to the daclatasvir dihydrochloride hydrate of the present invention
